# Measurements taken from PubChem BioAssay (NCI).
# Values joined by “and” are separate entries in the source; they are usually repeats but may differ in a detail not shown here. Equal entries are not always repeated.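 96-well plates; 48 h exposure; 5 concentrations. Endpoints by linear interpolation between flanking doses. Not reached: highest tested concentration assigned. GI50 = concentration required for 50% inhibition of growth. TGI: concentration producing complete growth inhibition.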
# Key:
# Test in all cases: NCI anticancer screen, dose series, 48 h
# [1] = test system: 786-0 renal
# [2] = test system: A498 renal
# [3] = test system: A549 NSCLC
# [4] = test system: ACHN renal
# [5] = test system: BT-549 breast
# [6] = test system: CAKI-1 renal
# [7] = test system: CCRF-CEM leukemia
# [8] = test system: COLO 205 colon
# [9] = test system: DU-145 prostate
# [10] = test system: EKVX NSCLC
# [11] = test system: HCC-2998 colon
# [12] = test system: HCT-116 colon
# [13] = test system: HCT-15 colon
# [14] = test system: HL-60(TB) leukemia
# [15] = test system: HOP-62 NSCLC
# [16] = test system: HOP-92 NSCLC
# [17] = test system: HS 578T breast
# [18] = test system: HT29 colon
# [19] = test system: IGROV1 ovarian
# [20] = test system: K-562 leukemia
# [21] = test system: KM12 colon
# [22] = test system: LOX IMVI melanoma
# [23] = test system: M14 melanoma
# [24] = test system: MALME-3M melanoma
# [25] = test system: MCF7 breast
# [26] = test system: MDA-MB-231 breast
# [27] = test system: MDA-MB-435
# [28] = test system: MDA-N
# [29] = test system: MOLT-4 leukemia
# [30] = test system: NCI-H226 lung
# [31] = test system: NCI-H23 lung
# [32] = test system: NCI-H460 lung
# [33] = test system: NCI-H522 lung
# [34] = test system: NCI/ADR-RES ovarian
# [35] = test system: OVCAR-3 ovarian
# [36] = test system: OVCAR-4 ovarian
# [37] = test system: OVCAR-5 ovarian
# [38] = test system: OVCAR-8 ovarian
# [39] = test system: PC-3 prostate
# [40] = test system: RPMI-8226 leukemia
# [41] = test system: RXF 393 renal
# [42] = test system: SF-268 CNS
# [43] = test system: SF-295 CNS
# [44] = test system: SF-539 CNS
# [45] = test system: SK-MEL-2 melanoma
# [46] = test system: SK-MEL-28 melanoma
# [47] = test system: SK-MEL-5 melanoma
# [48] = test system: SK-OV-3 ovarian
# [49] = test system: SN12C renal
# [50] = test system: SNB-19 CNS
# [51] = test system: SNB-75 CNS
# [52] = test system: SR leukemia
# [53] = test system: SW-620 colon
# [54] = test system: T-47D breast
# [55] = test system: TK-10 renal
# [56] = test system: U251 CNS
# [57] = test system: UACC-257 melanoma
# [58] = test system: UACC-62 melanoma
# [59] = test system: UO-31 renal
compound,measurement,setting,value
CN(C)CC/C=C1\c2ccccc2Sc2ccc(Cl)cc21,GI50,[1],2.5 µM
same,TGI,[1],6.88 µM and 25.6 µM
same,GI50,[2],3.02 µM
same,TGI,[2],14.1 µM and 28 µM
same,GI50,[3],2.87 µM
same,TGI,[3],11.4 µM and 28.9 µM
same,GI50,[4],3.61 µM
same,TGI,[4],14.4 µM and 29.6 µM
same,GI50,[5],4.91 µM
same,TGI,[5],17.4 µM and 29.2 µM
same,GI50,[6],2.56 µM
same,TGI,[6],11.4 µM and 21.4 µM
same,GI50,[7],3.36 µM
same,TGI,[7],15.4 µM and 25.2 µM
same,GI50,[8],1.54 µM
same,GI50,[9],6.38 µM
same,TGI,[9],18.6 µM and 29.7 µM
same,GI50,[10],6.47 µM
same,TGI,[10],22.3 µM and 22.8 µM
same,GI50,[11],1.68 µM
same,TGI,[11],3.43 µM and 4.76 µM
same,GI50,[12],2.4 µM
same,TGI,[12],6.13 µM and 24.4 µM
same,GI50,[13],3.79 µM
same,TGI,[13],14 µM and 30.6 µM
same,GI50,[14],4.46 µM
same,TGI,[14],13.7 µM and 27.7 µM
same,GI50,[15],1.94 µM
same,TGI,[15],5.44 µM and 28 µM
same,GI50,[16],0.379 µM
same,TGI,[16],3.39 µM and 18.7 µM
same,GI50,[17],2.99 µM
same,TGI,[17],15.1 µM and 37 µM
same,GI50,[18],1.98 µM
same,TGI,[18],3.96 µM and 16.4 µM
same,GI50,[19],3.24 µM
same,TGI,[19],11.3 µM and 26.3 µM
same,GI50,[20],2.43 µM
same,TGI,[20],4.71 µM and 18.7 µM
same,GI50,[21],2.54 µM
same,TGI,[21],6.08 µM and 37.9 µM
same,GI50,[22],1.57 µM
same,GI50,[23],1.87 µM
same,TGI,[23],3.58 µM and 11.4 µM
same,GI50,[24],1.71 µM
same,TGI,[24],3.47 µM and 28 µM
same,GI50,[25],1.81 µM
same,TGI,[25],3.37 µM and 30.3 µM
same,GI50,[26],2.12 µM
same,TGI,[26],9.32 µM and 28.3 µM
same,GI50,[27],1.77 µM
same,TGI,[27],4.03 µM and 23.1 µM
same,TGI,[28],26.1 µM
same,GI50,[29],3.44 µM
same,TGI,[29],9.98 µM and 25.9 µM
same,GI50,[30],2.45 µM
same,TGI,[30],9.11 µM and 38 µM
same,GI50,[31],3.52 µM
same,TGI,[31],15.7 µM and 31.3 µM
same,GI50,[32],2.02 µM
same,TGI,[32],3.95 µM and 28.8 µM
same,GI50,[33],1.67 µM
same,TGI,[33],3.23 µM and 29.1 µM
same,GI50,[34],2.42 µM
same,TGI,[34],8.24 µM and 30.8 µM
same,GI50,[35],3.99 µM
same,TGI,[35],13.5 µM and 26.8 µM
same,GI50,[36],3.72 µM
same,TGI,[36],13.9 µM and 28.5 µM
same,GI50,[37],4.61 µM
same,TGI,[37],17.9 µM and 27.8 µM
same,GI50,[38],1.99 µM
same,TGI,[38],4.44 µM and 32.8 µM
same,GI50,[39],3.03 µM
same,TGI,[39],12.5 µM and 26 µM
same,GI50,[40],2.69 µM
same,TGI,[40],9.19 µM and 17.2 µM
same,GI50,[41],1.86 µM
same,TGI,[41],5.59 µM and 28.3 µM
same,GI50,[42],3.78 µM
same,TGI,[42],14.1 µM and 30.1 µM
same,GI50,[43],1.78 µM
same,TGI,[43],4.09 µM and 29.7 µM
same,GI50,[44],3.61 µM
same,TGI,[44],11.2 µM and 36.2 µM
same,GI50,[45],1.95 µM
same,TGI,[45],3.71 µM and 31.7 µM
same,GI50,[46],1.74 µM
same,TGI,[46],3.11 µM and 20.2 µM
same,GI50,[47],1.62 µM
same,TGI,[47],3 µM and 28.6 µM
same,GI50,[48],1.99 µM
same,TGI,[48],5 µM and 30.7 µM
same,GI50,[49],2.84 µM
same,TGI,[49],13.7 µM and 29.9 µM
same,GI50,[50],2.62 µM
same,TGI,[50],10.6 µM and 29.9 µM
same,GI50,[51],2.46 µM
same,TGI,[51],7.61 µM and 25.2 µM
same,GI50,[52],3.29 µM
same,TGI,[52],8.76 µM
same,GI50,[53],2.18 µM
same,TGI,[53],5.4 µM and 35.4 µM
same,GI50,[54],1.46 µM
same,GI50,[55],1.91 µM
same,TGI,[55],3.95 µM and 28.3 µM
same,GI50,[56],1.92 µM
same,TGI,[56],4.66 µM and 26.9 µM
same,GI50,[57],1.49 µM
same,TGI,[57],3.11 µM and 20.6 µM
same,GI50,[58],1.51 µM
same,TGI,[58],3.09 µM and 26.7 µM
same,GI50,[59],2.96 µM
same,TGI,[59],15.6 µM and 21.5 µM
